pIC50: −log10 of the molar value. Like-named read-outs stand apart in the source and are kept apart here. Non-standard residues stand in square brackets, D forms with d. No end group written: not given here.
What was measured:
GPIb-vWf interaction = target: T1, GPIb-vWf interaction (Homo sapiens, UniProt P07359); assay: Flow cytometry inhibition of vWf binding to ristocetin-activated platelets in PRP; format: cell-based
T1 construct: Platelet rich plasma (PRP) was prepared from whole blood by centrifugation; endogenous in cells
Procedure: (§1) In order to prepare human platelets for testing, as approved by Canadian Blood Services' Ethics Board, samples of whole blood were drawn from healthy, consenting donors into 2.7-4.0 mL citrated tubes (BD, USA). Platelet rich plasma (PRP) was prepared from whole blood by centrifugation in a Beckman (CS-6R) bench-top centrifuge (r=203.57 mm, Beckman Coulter, USA) 164×g for 15 minutes. PRP from a number of unrelated donors were evaluated on an Adiva 120 Hematology Analyzer (Bayer, Canada) and standardized to a concentration of 300×10^9 platelets/L in HEPES buffered saline (HBS, 10 mM HEPES, 150 mM NaCl, pH 7.4).
Thereafter the samples were diluted and fixed with 1.0 mL 0.2% formolsaline (0.2% formaldehyde, 150 mM NaCl, pH 7.20) before analysis on a FACS Canto flow cytometer (BD, USA).
The effect of native HPG, free peptides, and peptide-conjugated HPG on activated platelets using modifications of the above assay systems was also examined. Platelets were treated with either 5 μL 4.2 mg/mL ristocetin (Chrono-Log, USA) or 100 U thrombin (T6884, Sigma-Aldrich, Canada) with 5 μL GPRP fibrin inhibitor (G5779, Sigma-Aldrich, Canada) dissolved in HBS. […] Controls included incubation with mouse IgG-FITC/IgG-PE (Beckman-Coulter, Canada) of the same isotype, and/or omitting the conjugate.

[1] = system: vWf binding to resting platelets; assay: Flow cytometry of vWf binding to resting platelets; format: cell-based, human
Procedure: as §1
(§2) 40 μL aliquots of HBS were mixed with 5 μL PRP and 5 μL of the material to be tested: 500 kDa native HPG; free peptides; or peptide-conjugated HPG at 1.0×10^−3 M to 1.0×10^−9 M. After 40 minutes of incubation at ambient temperature, 5 μL 0.01 mg/mL FITC-conjugated polyclonal sheep anti-human vWf IgG (Abcam, USA) or 5 μL of 2 mg/mL PE-conjugated monoclonal mouse anti-human CD62 IgG (Beckman-Coulter, Canada) was added and incubation was continued in the dark for 30 min. Thereafter the samples were diluted and fixed with 1.0 mL 0.2% formolsaline (0.2% formaldehyde, 150 mM NaCl, pH 7.20) before analysis on a FACS Canto flow cytometer (BD, USA).
(§3) The effect of native HPG, free peptides, and peptide-conjugated HPG on activated platelets using modifications of the above assay systems was also examined. Platelets were treated with either 5 μL 4.2 mg/mL ristocetin (Chrono-Log, USA) or 100 U thrombin (T6884, Sigma-Aldrich, Canada) with 5 μL GPRP fibrin inhibitor (G5779, Sigma-Aldrich, Canada) dissolved in HBS. This was done to determine whether the peptides and the peptide-conjugates can mitigate vWf and thrombin mediated platelet effects. Controls included incubation with mouse IgG-FITC/IgG-PE (Beckman-Coulter, Canada) of the same isotype, and/or omitting the conjugate. As a result, native HPG, free peptides, and peptide-conjugated HPG neither did they increase vWf binding to resting platelets (Table 5) or they could trigger platelet activation.

platelets = assay: Aggregometry, % aggregation on activation; format: cell-based, human; set-up: concentration or dose not given beside the values; settings: ristocetin activation
Procedure: as §1, §3
The inhibition of platelet agglutination by vWf was observed both by light microscopy and lumiaggregometry (Table 5). No clumping was seen when resting platelets were incubated with free peptides, native HPG, or peptide-conjugated HPG.

[2] = system: CD62/P-selectin on platelet surfaces; assay: Flow cytometry of surface CD62 expression on platelets; format: cell-based, human; settings: for Surface CD62 Expression, Activated Platelets: thrombin-activated platelets
Procedure: as §1, §2
as §3, with “activation. […]” for “activation.”

purified vWf = purified vWf (Homo sapiens, UniProt P04275); assay: Random D-peptide array on cellulose membrane probed with purified vWf; format: binding; settings: detected by HRP anti-human-vWf IgG
From the text: Random D-amino acid peptides (15 mer) were synthesized and probed with vWf to detect random sequences capable of binding vWf.
Random peptide arrays of 1120 peptides made of D-amino acids were synthesized on a cellulose membrane using an AutoSpot ASP 222 peptide synthesizer (ABiMED, Langenfeld, Germany). Resulting replicate libraries of 15-mer sequences were probed for vWf binding function by exposing the membranes to purified vWf after blocking with skim milk to prevent non-specific binding of horseradish peroxidase labelled goat anti-human-vWf IgG. The chemiluminescent substrate from the Amersham Pharmacia ECL kit detected positive spots that were recorded on photographic film. Negative controls consisted of probing the membranes with the antibodies without prior exposure of the membrane to purified vWf.
(§4) Peptides on random 15-mer peptide arrays that were built of D-amino acids were selected on the basis of their ability to bind to vWf. Only four positive sequences were identified: D-pep1—[…] (SEQ ID NO:4); D-pep2—[…] (SEQ ID NO:5); D-pep3—[…] (SEQ ID NO:6); and D-pep4—[…] (SEQ ID NO:7). D-pep2 (SEQ ID NO:5), D-pep3 (SEQ ID NO:6) and D-pep4 (SEQ ID NO:7) were synthesized for laboratory experimentation. D-pep3 (SEQ ID NO:6), 10 mg, was synthesized by UBC's Peptide Proteomic Centre and was solubilized in Hepes-saline buffer, pH 7.4 and used at 0.1-0.5 mg/mL. Fresh washed platelets ([…]) in Hepes buffer were added and agglutination was initiated by 1.25 mg/mL ristocetin (Sigma). Agglutination times and levels were monitored both microscopically and on an aggregometer (ChronoLog) as described by the manufacturer.

[3] = system: GPIb-vWf-mediated platelet agglutination; assay: Inhibition of ristocetin-mediated agglutination of washed platelets (microscopy, aggregometer); format: cell-based, human; settings: for % agglutination (aggregometry): at 10 minutes, washed platelets, ristocetin
Procedure: as §4

[4] = expressed as peptide concentration
[5] = inhibition of platelet-vWf binding, molar concentration of peptide or conjugate
[6] = inhibition of platelet-vWf binding, molar concentration of peptide or conjugate, read-out: Ic50

Substance	vWf Binding, Resting Platelets [1]	Aggregometry % Aggregation on Activation (platelets)	Surface CD62 Expression, Resting Platelets [2]	Surface CD62 Expression, Activated Platelets [2]	Peptide Concentration at Ic50 (M) (GPIb-vWf interaction; [4])	Ic50 (M) (GPIb-vWf interaction; [5])	vWf binding on random 15-mer D-peptide array (purified vWf)	further results
CGGGGGGRDKLGIYAHS [LR-pep]	25 ± 12′	5 ± 5%	19 ± 2	70 ± 5″	–	–	–	pIC50 (GPIb-vWf interaction): 4.47
D10: HPG 500 kDa conjugate with about 10 D-peptides per HPG molecule ([dC]GGGGGG[dR][dD][dK][dL]G[dI][dY][dA][dH][dS]; also: coupled through vinyl sulfone to 500 kDa hyperbranched polyglycerol (HPG), about 10 peptides per HPG)	24 ± 2′	82 ± 5%	14 ± 7	70 ± 6″	No activity	No activity	–	–
D100: HPG 500 kDa conjugate with about 100 D-peptides per HPG molecule ([dC]GGGGGG[dR][dD][dK][dL]G[dI][dY][dA][dH][dS]; also: coupled through vinyl sulfone to 500 kDa hyperbranched polyglycerol (HPG), about 100 peptides per HPG)	26 ± 3′	73 ± 5%	18 ± 1	72 ± 1″	No activity	No activity	–	–
D-CGGGGGGRDKLGIYAHS [D-pep]	14 ± 8′	80 ± 5%	18 ± 2	68 ± 10″	No activity	No activity	–	–
D-CGGGGGGRDKLGIYAHS [DR-pep]	28 ± 3′	78 ± 5%	27 ± 18	72 ± 3″	No activity	No activity	–	–
DSCPRDWDNNFLFFE ([dD][dS][dC][dP][dR][dD][dW][dD][dN][dN][dF][dL][dF][dF][dE]) [D-pep4]	–	–	–	–	–	–	positive	–
L10: HPG 500 kDa conjugate with about 10 L-peptides per HPG molecule (CGGGGGGSHAYIGLKDR; also: conjugated to HPG 500 kDa, about 10 L-peptides per HPG molecule, site not given here)	22 ± 5′	–	17 ± 1	73 ± 5″	–	–	–	inhibition of vWf binding to platelets (in words) (GPIb-vWf interaction): effective inhibitors; pIC50 (GPIb-vWf interaction; expressed as peptide concentration, read-out: Peptide Concentration at Ic50): 4.17; pIC50 (GPIb-vWf interaction; [6]): 5.17
LR10: HPG conjugate with 10 L-retro peptides per HPG molecule (CGGGGGGRDKLGIYAHS; also: conjugated to HPG, 10 L-retro peptides per HPG molecule, site not given here)	24 ± 2′	–	17 ± 2	72 ± 4″	–	–	–	pIC50 (GPIb-vWf interaction; [6]): 5.39
LR100: HPG 500 kDa conjugate with about 100 L-retro peptides per HPG molecule (CGGGGGGRDKLGIYAHS; also: conjugated to HPG 500 kDa, about 100 L-retro peptides per HPG molecule, site not given here)	22 ± 2′	–	18 ± 1	73 ± 2″	–	–	–	inhibition of vWf binding to platelets (in words) (GPIb-vWf interaction): effective inhibitors; pIC50 (GPIb-vWf interaction; [6]): 6.31
RSARMQVCWNAFKNR ([dR][dS][dA][dR][dM][dQ][dV][dC][dW][dN][dA][dF][dK][dN][dR]) [D-pep3]	–	–	–	–	–	–	positive	% agglutination (aggregometry) ([3]; 0.1 mg/mL): 69%; % agglutination (aggregometry) ([3]; 0.25 mg/mL): 28%; % agglutination (aggregometry) ([3]; 0.5 mg/mL): 13%; ristocetin-mediated platelet agglutination by microscopy ([3]; 100-fold excess of peptide based on plasma vWf content, controls agglutinated within 5 minutes): prevented visible agglutination at 20 minutes
VSRQNGKQYWAIKEG ([dV][dS][dR][dQ][dN]G[dK][dQ][dY][dW][dA][dI][dK][dE]G) [D-pep1]	–	–	–	–	–	–	positive	–
WQNEGTHVLSRCYEC ([dW][dQ][dN][dE]G[dT][dH][dV][dL][dS][dR][dC][dY][dE][dC]; cysteine pairing not given here) [D-pep2]	–	–	–	–	–	–	positive	–
bovine serum albumin [reference compound]	–	–	–	–	–	–	–	% agglutination (aggregometry) ([3]; 0.5 mg/mL): 55%

Reference: patent US7919465B2, “Peptide mimotopes that inhibits interaction between a platelet receptor and a platelet receptor ligand” (priority 2006, dated 2011)
